Converted amounts (≈) assume the structure as drawn.
What was measured:
[1] = tested on: M. abscessus subsp. abscessus ATCC 19977 biofilm; assay: Antibiofilm activity, MBEC biofilm assay; format: cell-based, Mycobacterium abscessus; conditions: 1×, 4×, 8× MIC; surface-attached CFU after 2 and 3 days
Procedure: The antibiofilm activity of 844 and 844-TMF was determined employing the MBEC 96-well Biofilm assay kit (19111; Innovotech, Edmonton, AB, Canada) as described previously ([15]) with minor modifications. Briefly, exponentially growing M. abscessus subsp. abscessus ATCC 19977 cultures were spun down at 3,200 × g for 10 min and washed with 7H9 broth without Tween 80 (‘7H9’). Bacteria were resuspended in ‘7H9’ to an OD600 of 0.0125, and 150 μl was dispensed into the wells of Innovotech 96-well plates. Pegs (protruding from the specialized lids of the Innovotech multiwell plates) were inserted into the bacterial suspensions in the wells, and the cultures were grown 24 h with shaking at 110 rpm at 37°C to allow attachment and growth of the bacteria on the surface of the pegs. […] Biofilm growth on the pegs was measured by CFU determination. The pegs were washed in 200 μl ‘7H9’ medium, removed, and placed in 1.7-ml microcentrifuge tubes (87003-294; VWR, Radnor, PA, USA) containing 500 μl PBS/Tween 80 (0.025%). The tubes were vortexed at 2,000 rpm for 90 s to detach and suspend the bacteria from the pegs before samples were serially diluted and plated onto 7H10 agar supplemented with 0.4% activated charcoal to determine CFU/peg.

[2] = tested on: M. abscessus subsp. abscessus ATCC 19977; assay: Selection and characterization of spontaneous resistant mutants; format: cell-based, Mycobacterium abscessus; conditions: ATCC 19977, agar with 8× MIC
[3] = Parallel artificial membrane permeability assay (PAMPA); format: in vitro ADME
Procedure: (§1) Kinetic solubility, parallel artificial membrane permeability assay (PAMPA) permeability, and stability in the mouse liver microsome assay were performed by BioDuro (Shanghai, China) according to standard protocols.

[4] = tested on: M. abscessus subsp. abscessus M9; assay: MIC, broth microdilution; format: cell-based, Mycobacterium abscessus; conditions: Mycobacteroides abscessus, 72 h, 90% growth inhibition, 3 days
Procedure: (§2) MIC was determined using the broth microdilution method in 96-well plates as described previously ([47]). Briefly, a 10-point 2-fold serial dilution of compounds was performed in 96-well plates (Costar 3370; Corning, USA) starting at twice the desired highest concentration. […] One hundred microliters of the bacterial suspension was seeded onto the 96-well plates containing 100 μl of the serially diluted compounds to give a final volume of 200 μl in each well with the final OD600 of 0.005. The plates were sealed with parafilm, placed onto wet paper towels in a lock-lock box and incubated for 3 days at 37°C with orbital shaking at 90 rpm. […] Absorbance values at day 3 were subtracted from the day 0 readout. Percent growth inhibition was calculated by dividing the absolute absorbance value of treated cells with untreated control and multiplying by 100. CLR was included in all MIC experiments as a positive control to monitor assay reproducibility. MIC was defined as 90% of growth inhibition relative to untreated controls.

[5] = tested on: M. abscessus subsp. abscessus ATCC 19977; assay: MIC, broth microdilution; format: cell-based, Mycobacterium abscessus; conditions: Mycobacteroides abscessus, ATCC19977, 72 h; abscessus ATCC 19977 wild type; 90% growth inhibition, 3 days
Procedure: as §2

[6] = tested on: M. abscessus subsp. massiliense M111; assay: MIC, broth microdilution; format: cell-based, Mycobacterium abscessus; conditions: Mycobacteroides abscessus, 72 h, 90% growth inhibition, 3 days
Procedure: as §2

[7] = tested on: M. abscessus subsp. abscessus Bamboo; assay: MIC, broth microdilution; format: cell-based, Mycobacterium abscessus; conditions: Mycobacteroides abscessus, 72 h; abscessus Bamboo wild type; 90% growth inhibition, 3 days
Procedure: as §2

[8] = tested on: M. abscessus subsp. abscessus M337; assay: MIC, broth microdilution; format: cell-based, Mycobacterium abscessus; conditions: Mycobacteroides abscessus, 72 h, 90% growth inhibition, 3 days
Procedure: as §2

[9] = tested on: M. abscessus subsp. abscessus M199; assay: MIC, broth microdilution; format: cell-based, Mycobacterium abscessus; conditions: Mycobacteroides abscessus, 72 h, 90% growth inhibition, 3 days
Procedure: as §2

[10] = tested on: M. abscessus subsp. massiliense CCUG 48898T; assay: MIC, broth microdilution; format: cell-based, Mycobacterium abscessus; conditions: Mycobacteroides abscessus, 72 h, 90% growth inhibition, 3 days
Procedure: as §2

[11] = tested on: M. abscessus subsp. bolletii M232; assay: MIC, broth microdilution; format: cell-based, Mycobacterium abscessus; conditions: Mycobacteroides abscessus, 72 h, 90% growth inhibition, 3 days
Procedure: as §2

[12] = tested on: M. abscessus subsp. bolletii M506; assay: MIC, broth microdilution; format: cell-based, Mycobacterium abscessus; conditions: Mycobacteroides abscessus, 72 h, 90% growth inhibition, 3 days
Procedure: as §2

[13] = tested on: M. abscessus subsp. abscessus M404; assay: MIC, broth microdilution; format: cell-based, Mycobacterium abscessus; conditions: Mycobacteroides abscessus, 72 h, 90% growth inhibition, 3 days
Procedure: as §2

[14] = tested on: M. abscessus subsp. abscessus M421; assay: MIC, broth microdilution; format: cell-based, Mycobacterium abscessus; conditions: Mycobacteroides abscessus, 72 h, 90% growth inhibition, 3 days
Procedure: as §2

[15] = tested on: M. abscessus subsp. abscessus K21; assay: MIC, broth microdilution; format: cell-based, Mycobacterium abscessus; conditions: Mycobacteroides abscessus, 72 h, 90% growth inhibition, 3 days
Procedure: as §2

[16] = tested on: M. abscessus subsp. bolletii CCUG 50184T; assay: MIC, broth microdilution; format: cell-based, Mycobacterium abscessus; conditions: Mycobacteroides abscessus, 72 h, 90% growth inhibition, 3 days
Procedure: as §2

[17] = Plasma stability; format: in vitro ADME, rhesus monkeys; conditions: monkey plasma, 37°C, 1 μg/ml
Procedure: The plasma stability assays were carried out using plasma from female CD-1 mice, New Zealand white rabbits, rhesus monkeys, and humans containing K2EDTA anticoagulant (Bioreclamation). Stability samples consisted of 5 μl of stock compound solution in 50:50 ACN/water and 95 μl of plasma to a final concentration of 1 μg/ml. The samples were incubated at 37°C with shaking; 10 μl of plasma was removed at each time point and combined with 100 μl of ACN/methanol 50:50 protein precipitation solvent containing internal standard (10 ng/ml verapamil). Chromatography for metabolite identification was performed the same as specified for pharmacokinetic sample analysis. Full scan total ion chromatograms (TIC) of plasma extracts were acquired using a Q Exactive high-resolution mass spectrometer (QE-HRMS) at 70,000 mass resolution. Thermo Fisher Compound Discoverer software was used to assist in identifying the 844-TFM metabolites from the QE-HRMS TIC mass spectrum. Figure S2 in the supplemental material illustrates the extracted ion chromatograms (XIC) of 844-TFM and the metabolites using 5 ppm mass accuracy before and after 12 h of incubation in mouse plasma.

[18] = tested on: M. abscessus subsp. abscessus ATCC 19977 844-TMF^r-4 (GyrB M474I); assay: MIC, resistant mutant; format: cell-based, Mycobacterium abscessus; conditions: Mycobacteroides abscessus, ATCC19977
[19] = tested on: M. abscessus subsp. abscessus ATCC 19977; assay: Time-concentration kill assay, planktonic cultures; format: cell-based, Mycobacterium abscessus; conditions: 1×, 4×, 8× MIC; CFU after 2 and 3 days
Procedure: At 0, 2, and 3 days, tubes were vortexed, and 20 μl of the cultures was transferred to round-bottom 96-well plates containing 180 μl of phosphate-buffered saline (PBS) (10010023; Thermo Fisher, USA) with 0.025% Tween 80 (PBS/Tween 80) for 10-fold serial dilution. To prevent compound carryover effects, we plated out serially diluted samples onto 7H10 agar supplemented with 0.4% activated charcoal (C9154; Sigma-Aldrich, USA) for all time points as described ([48]). CFU were enumerated after 4 days of incubation at 37°C.

[20] = Kinetic solubility; format: physicochemical
Procedure: as §1

For `COc1ccc2nccc(NC(=O)C3CCN(CCc4ccc(C(F)(F)F)cc4)CC3)c2n1` [844-TFM], the “bactericidal activity against M. abscessus grown as biofilm” value [1] was “bactericidal”, the “frequency of spontaneous resistance” value [2] was 10^−8 /CFU and the Papp ([3]; PAMPA, pH 7.4, read-out: PAMPA Mean Pe) was 2 ×10⁻⁶ cm/s. The “PAMPA logPe” value ([3]; pH 7.4) was −5.7, the “PAMPA logPe” value ([3]; −5.0 cm/s considered border between high and low permeability) was −5.7 cm/s and the MIC [4] was 3.1 µM (≈ 1.42 µg/mL). It also gave an MIC [5] of 1.5 µM (≈ 0.688 µg/mL), an MIC [6] of 6.3 µM (≈ 2.89 µg/mL) and an MIC [7] of 1.5 µM (≈ 0.688 µg/mL). The MIC [8] was 3.1 µM (≈ 1.42 µg/mL), the MIC [9] was 6.3 µM (≈ 2.89 µg/mL) and the MIC [10] was 2 µM (≈ 0.917 µg/mL). The MIC [11] was 1.6 µM (≈ 0.734 µg/mL), the MIC [12] was 3.1 µM (≈ 1.42 µg/mL) and the MIC [13] was 1.6 µM (≈ 0.734 µg/mL). It also gave an MIC [14] of 1.6 µM (≈ 0.734 µg/mL), an MIC [15] of 3.5 µM (≈ 1.6 µg/mL) and an MIC [16] of 2 µM (≈ 0.917 µg/mL). For the same molecule, the “remaining after 24 h” value [17] was “approximately 80%”, the MIC [18] was 6 µM (≈ 2.75 µg/mL) and the “bactericidal activity in planktonic cultures” value [19] was “bactericidal”. It also gave a solubility ([20]; pH 7.4) of 390 µM (≈ 179 µg/mL) and a solubility ([20]; simulated gastric fluid, pH 2) of 446 µM (≈ 205 µg/mL).
